In ChEMBL document CHEMBL1201862, “PubChem BioAssay data set” (2004):
Calls of active or inactive are those of the source. Rule as the data show it, for most assays here: actives have a measured EC50 and inactives only a lower limit.

Legend:
[1] = biological target: Luciferin 4-monooxygenase (Photinus pyralis, UniProt P08659); experiment: firefly luciferase enzyme inhibitors, dose response, biochemical, luminescence (AID 1891)
[2] = Luminescence Cell-Based Dose Confirmation HTS to Identify Inhibitors of Platelet Dense Granule Release. [Related pubchem assays: 1663 (Primary HTS), 1678 (Summary of Project)]; assay type: functional
[3] = biological target: T1, Heat shock factor protein 1 (Mus musculus, UniProt P38532); experiment: HSF1 potentiators in luciferase reporter cells, confirmation, cell-based, NIH3T3, luminescence, dose retest (AID 435004); assay type: functional;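 also: stress induced by proteasome inhibitor MG132 added 30 min after compound; luciferase reporter driven by HSF1 response element in NIH3T3 cells; actives raise luminescence as potentiators of the MG132 stress response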
T1 sequence (P38532 whole entry): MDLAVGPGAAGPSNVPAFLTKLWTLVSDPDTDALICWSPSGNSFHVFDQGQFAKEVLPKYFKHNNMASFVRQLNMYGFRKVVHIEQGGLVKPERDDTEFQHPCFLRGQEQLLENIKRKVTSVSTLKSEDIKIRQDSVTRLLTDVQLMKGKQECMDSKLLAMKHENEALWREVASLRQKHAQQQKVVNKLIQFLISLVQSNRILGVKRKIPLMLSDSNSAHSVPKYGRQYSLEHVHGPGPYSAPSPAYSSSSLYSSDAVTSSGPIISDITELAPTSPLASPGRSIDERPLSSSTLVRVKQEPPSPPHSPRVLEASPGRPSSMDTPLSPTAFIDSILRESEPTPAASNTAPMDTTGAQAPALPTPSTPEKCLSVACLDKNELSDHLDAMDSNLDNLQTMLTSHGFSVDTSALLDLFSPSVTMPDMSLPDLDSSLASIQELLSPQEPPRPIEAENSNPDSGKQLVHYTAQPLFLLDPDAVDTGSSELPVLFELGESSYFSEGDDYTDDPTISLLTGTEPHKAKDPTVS

[4] = inhibitors of firefly luciferase expression or activity, dose response, H4 neuroglioma cells, luminescence (AID 1990); assay type: functional, cell-based
[5] = NIH-3T3 fibroblast cytotoxicity, dose response, cytotoxicity control, cell-based, fluorescence, Alamar Blue, secondary assay (AID 2327); assay type: functional;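 also: NIH-3T3 mouse fibroblasts cultured with fluconazole at 8 µg/mL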
[6] = inhibitors of SNCA 5'UTR-driven reporter translation, confirmation, H4 neuroglioma cells, luminescence (AID 1988); assay type: functional, cell-based
[7] = C. albicans growth with fluconazole, confirmation, fluorescence, retest (AID 2467); assay type: functional, cell-based
[8] = Luminescence Cell-Based Dose Response HTS to Identify Inhibitors of 5'UTR Stem-Loop Driven Prion Protein mRNA Translation in H4 Neuroglioblastoma Cells. [Related pubchem assays: 1827 (Project Summary), 1813 (Primary HTS)]; assay type: functional
[9] = cytotoxicity toward DRD oncogenic fibroblasts, dose response, cell-based, non-viral oncogenic, luminescence (AID 1934); assay type: functional; details: Homo sapiens
BJ [10] = experiment: cells; assay type: functional, cell-based; details: Homo sapiens
BJ [11] = experiment: cytotoxicity toward BJ-TERT fibroblasts, dose response, cell-based, RAS-independent, luminescence (AID 1933); assay type: functional; details: Homo sapiens
BJ [12] = experiment: cytotoxicity toward BJ-TERT-LT-ST fibroblasts, dose response, cell-based, RAS-independent, luminescence (AID 1935); assay type: functional; details: Homo sapiens;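 also: BJ fibroblasts immortalized with TERT plus LT and ST oncogenes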
[13] = biological target: T1, Heat shock factor protein 1; experiment: inhibition of MG132-induced HSE-luciferase signal, confirmation, cell-based, NIH3T3, luminescence, dose retest (AID 2382); assay type: functional;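 also: NIH3T3 fibroblasts with HSF1-driven luciferase reporter stressed by proteasome inhibitor MG132; luminescence from HSF1-driven luciferase expression after 8 hours of MG132 stress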
INS1 = experiment: beta cell apoptosis inhibitors, cytokine rescue, dose response, luminescence, retest (AID 449756); assay type: functional, cell-based; details: Rattus norvegicus;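 also: cell death triggered by IL-1 beta plus TNF-alpha plus IFN-gamma mixture; protective hits raise ATP signal compared with cytokine alone wells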
Streptococcus = experiment: Group A Streptococcus viability loss, dose response, counter-screen for streptokinase expression inhibitor project, luminescence, BacTiterGlo (AID 1915); assay type: functional, organism-based;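 also: potency for reduction of bacterial viability or growth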
[14] = system: Streptococcus sp. 'group A'; experiment: growth inhibition of control SK(-) GAS strain, dose response, counter-screen for streptokinase expression inhibitor project, luminescence, kanamycin, BacTiterGlo, confirmation (AID 1900); assay type: functional, organism-based
Streptokinase A = biological target: T2, Streptokinase A (Streptococcus pyogenes serotype M1, UniProt P10520); experiment: S. pyogenes streptokinase expression inhibitors, potency, dose response, plasminogen activation absorbance, OD405 (AID 1914); assay type: functional, Streptococcus pyogenes M1 GAS;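 also: secreted streptokinase activity via plasminogen activation per viability signal from cell pellet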
T2 sequence (P10520 whole entry): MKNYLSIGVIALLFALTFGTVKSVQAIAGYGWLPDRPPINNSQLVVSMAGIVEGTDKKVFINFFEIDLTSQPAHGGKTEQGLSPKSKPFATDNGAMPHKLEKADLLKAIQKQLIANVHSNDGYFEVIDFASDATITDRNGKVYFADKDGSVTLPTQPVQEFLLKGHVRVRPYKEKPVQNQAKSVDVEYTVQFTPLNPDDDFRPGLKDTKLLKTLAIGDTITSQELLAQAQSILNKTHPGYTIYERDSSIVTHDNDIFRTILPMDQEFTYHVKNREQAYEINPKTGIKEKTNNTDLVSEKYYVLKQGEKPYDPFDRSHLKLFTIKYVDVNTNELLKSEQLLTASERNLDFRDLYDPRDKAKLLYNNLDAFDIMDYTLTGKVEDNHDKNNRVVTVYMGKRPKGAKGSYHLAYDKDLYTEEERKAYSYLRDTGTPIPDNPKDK

[15] = inhibitors of intracellular T. cruzi replication, confirmation, NIH3T3 host cells, beta-gal luminescence (AID 2044); assay type: functional, cell-based;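 also: intracellular parasites grown in NIH/3T3 mouse fibroblasts as host cells; luminescent beta-galactosidase reporter signal from transgenic T. cruzi replicating inside host cells; inhibitors lower the luminescence signal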
[16] = cytotoxicity toward NIH3T3 fibroblasts, dose response, counter-screen, cell-based, ATP luminescence, mouse fibroblasts (AID 2010); assay type: functional;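 also: cells exposed to compound for about 90 hours before reading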
[17] = Luminescence Cell-Based Dose Retest to Confirm Inhibitors of Cancer Stem Cells. [Related pubchem assays (depositor defined):AID2717, AID2721]; assay type: functional; details: Homo sapiens
H9c2 = experiment: cells; assay type: functional, cell-based; details: Rattus norvegicus, H9c2, Myocardium;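 also: confirmatory concentration-response retest of ultra-high-throughput screening hits for modulation of myocardial damage; cell death induced by hydrogen peroxide oxidative stress; compound pretreatment for 60 min then peroxide exposure for 2 h; potency is for protecting the cells against peroxide damage rather than for killing them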
Vero = experiment: cells; assay type: functional; details: Chlorocebus sabaeus
Cytochrome P450 2C9 = Cytochrome P450 2C9 (Homo sapiens, UniProt P11712)
Sequence of Cytochrome P450 2C9 (P11712 whole entry): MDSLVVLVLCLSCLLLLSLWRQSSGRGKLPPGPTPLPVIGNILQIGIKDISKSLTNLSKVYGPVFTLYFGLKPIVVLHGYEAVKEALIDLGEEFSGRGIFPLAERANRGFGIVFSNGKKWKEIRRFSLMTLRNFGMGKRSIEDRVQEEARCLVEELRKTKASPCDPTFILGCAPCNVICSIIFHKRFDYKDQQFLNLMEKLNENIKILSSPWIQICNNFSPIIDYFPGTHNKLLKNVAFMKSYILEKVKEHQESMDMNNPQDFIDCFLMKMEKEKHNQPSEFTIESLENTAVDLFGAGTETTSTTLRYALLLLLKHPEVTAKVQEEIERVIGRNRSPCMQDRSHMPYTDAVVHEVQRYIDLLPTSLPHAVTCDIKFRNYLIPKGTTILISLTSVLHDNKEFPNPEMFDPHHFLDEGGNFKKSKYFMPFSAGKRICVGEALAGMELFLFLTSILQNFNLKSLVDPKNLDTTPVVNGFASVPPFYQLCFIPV

Cytochrome P450 3A4 = Cytochrome P450 3A4 (Homo sapiens, UniProt P08684);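 also: CYP3A4 tested as one member of a cytochrome P450 panel screen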
Sequence of Cytochrome P450 3A4 (P08684 whole entry): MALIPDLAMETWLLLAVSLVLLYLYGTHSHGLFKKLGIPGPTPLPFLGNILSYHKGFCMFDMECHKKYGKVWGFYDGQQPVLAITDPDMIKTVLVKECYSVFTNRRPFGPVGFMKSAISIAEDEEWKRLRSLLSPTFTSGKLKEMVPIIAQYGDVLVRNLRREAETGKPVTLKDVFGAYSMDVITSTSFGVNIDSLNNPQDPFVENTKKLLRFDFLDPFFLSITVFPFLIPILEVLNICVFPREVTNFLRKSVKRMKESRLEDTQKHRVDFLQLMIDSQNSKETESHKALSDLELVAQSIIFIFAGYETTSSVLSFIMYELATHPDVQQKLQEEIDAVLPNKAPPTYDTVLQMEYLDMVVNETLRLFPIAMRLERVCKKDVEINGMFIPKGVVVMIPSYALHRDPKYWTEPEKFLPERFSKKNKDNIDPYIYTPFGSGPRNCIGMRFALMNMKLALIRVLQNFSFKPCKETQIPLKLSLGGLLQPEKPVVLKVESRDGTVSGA

[18] = biological target: FAD-linked sulfhydryl oxidase ALR (Homo sapiens, UniProt P55789); experiment: inhibitors of human ALR sulfhydryl oxidase, dose response, biochemical, H2O2 detection, luminescence, cherry-pick (AID 493248)
Sequence of FAD-linked sulfhydryl oxidase ALR (P55789 whole entry): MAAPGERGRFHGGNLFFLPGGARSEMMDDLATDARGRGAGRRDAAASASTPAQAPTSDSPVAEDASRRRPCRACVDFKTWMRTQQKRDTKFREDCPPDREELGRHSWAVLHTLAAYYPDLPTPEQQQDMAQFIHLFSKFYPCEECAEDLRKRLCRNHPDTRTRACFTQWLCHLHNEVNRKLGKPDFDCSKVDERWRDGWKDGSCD

Sequence of Luciferin 4-monooxygenase (P08659 whole entry): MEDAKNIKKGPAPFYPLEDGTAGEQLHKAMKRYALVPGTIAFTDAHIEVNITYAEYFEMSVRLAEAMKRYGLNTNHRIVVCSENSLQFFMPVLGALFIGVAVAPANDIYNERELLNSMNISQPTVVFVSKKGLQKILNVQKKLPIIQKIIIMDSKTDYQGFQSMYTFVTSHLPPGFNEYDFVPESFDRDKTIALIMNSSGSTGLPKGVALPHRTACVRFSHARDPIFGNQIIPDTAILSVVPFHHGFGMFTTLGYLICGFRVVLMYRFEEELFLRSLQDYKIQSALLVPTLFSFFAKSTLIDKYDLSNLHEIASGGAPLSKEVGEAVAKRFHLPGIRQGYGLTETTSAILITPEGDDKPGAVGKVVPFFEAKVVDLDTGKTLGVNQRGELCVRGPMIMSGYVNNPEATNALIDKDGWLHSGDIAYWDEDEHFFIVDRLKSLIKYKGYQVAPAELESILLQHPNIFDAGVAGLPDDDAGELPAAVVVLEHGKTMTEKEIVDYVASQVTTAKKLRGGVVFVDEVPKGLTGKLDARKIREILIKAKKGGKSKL

CCCn1nc(C(=O)NNC(=O)c2cccc(S(=O)(=O)NC(C)C)c2)c2ccccc2c1=O
EC50 [1]: > 112 µM (not active)
EC50 [2]: > 112 µM (not active)

COc1ccc(/N=C2/C(=N\c3ccc(OC)cc3)N(c3ccc(OC)cc3)C(=S)N2C(=O)c2ccc(OC)cc2)cc1
EC50 [3]: > 260 µM (inactive)

O=C(Nc1ccc(OCc2ccccc2Cl)cc1)c1cccnc1
EC50 [4]: 3.07 µM (active)
EC50 [5]: > 150 µM (inactive)
EC50 [6]: 0.485 µM (active)
EC50 [7]: > 38 µM (not active)
EC50 [8]: 0.909 µM (active)

CCn1cc(/C=N\NC(=O)c2ccc3c(c2)c(C)c(C)n3Cc2ccccc2)c(C)n1
EC50 [9]: > 150 µM (not active)
EC50 (BJ [10]): > 150 µM (not active)
EC50 (BJ [11]): > 150 µM (not active)
EC50 (BJ [12]): > 150 µM (not active)

Cn1c(=O)c2c(nc(SCCN3CCOCC3)n2Cc2ccccc2Cl)n(C)c1=O
EC50 [1]: > 112 µM (not active)
EC50 [2]: > 112 µM (not active)

Cc1ccc(C(=O)O/N=C(\N)c2ccccc2)c(Cl)c1
EC50 [1]: 1.03 µM (active)
EC50 [2]: 2.42 µM (active)
EC50 [13]: < 0.16 µM (active)

O=S(=O)(c1cc(Cl)ccc1Cl)N1CC2CCCN2c2ccc(C(F)(F)F)cc21 (configuration not stated)
EC50 [3]: > 260 µM (inactive)

Cc1cc(/C(O)=C(/C([S-])=Nc2ccccc2)[n+]2ccccc2)c(C)n1-c1ccccc1
EC50 [4]: > 120 µM (not active)
EC50 [6]: > 120 µM (not active)
EC50 [13]: 2.53 µM (active)
EC50 [8]: > 120 µM (not active)

Cc1ccc(-c2nc(N/N=C/c3cccnc3)c3ccccc3n2)cc1
AC50 (INS1): 6.77 µM (active)
EC50 [1]: 0.798 µM (active)
EC50 [2]: 1.02 µM (active)

CCc1ccc(N(C(=O)c2snc(C(N)=O)c2N)C(C(=O)NCCC(C)C)c2c[nH]c3ccccc23)cc1 (configuration not stated)
EC50 [3]: 139 µM (active)

COc1ccc(C2=CC(c3ccc(OC)c(OC)c3)c3c(c4ccccc4oc3=O)O2)cc1OC (configuration not stated)
EC50 [9]: 17.3 µM (active)
EC50 (BJ [10]): 51.8 µM (active)
EC50 (BJ [11]): 5.11 µM (active)
EC50 [13]: > 195 µM (not active)
EC50 (BJ [12]): 27.7 µM (active)

Cc1nc2cc(Nc3ccncc3)ccc2s1
EC50 [1]: > 112 µM (not active)
EC50 [2]: > 112 µM (not active)

CC(C)OC(=O)c1c2nc3ccccc3nc2n2c1nc(O)c1ccccc12
EC50 (Streptococcus): 39.6 µM (active)
EC50 [14]: 1.24 µM (active)
EC50 (Streptokinase A): > 150 µM (not active)

COc1ccc(C(=O)NC2CCN(C(S)=NCc3ccco3)CC2)cc1
EC50 [3]: > 260 µM (inactive)

Cc1cc2oc(=O)cc(CNc3ccccc3F)c2cc1O
EC50 [15]: 1.81 µM (active)
EC50 (Streptococcus): > 150 µM (not active)
EC50 [14]: 9.59 µM (active)
EC50 [16]: > 60 µM (not active)
EC50 (Streptokinase A): 51.2 µM (active)

Nc1cc(-c2ccc(OC(F)(F)F)cc2)nn1-c1ccc(Cl)c(Cl)c1
EC50 (Streptococcus): 11.6 µM (active)
EC50 [14]: 6.98 µM (active)
AC50 [17]: 4.74 µM (active)
EC50 (Streptokinase A): 20 µM (inconclusive)

C=CCc1ccccc1OCC(=O)N/N=C/c1ccc(OC(C)=O)cc1OC(C)=O
EC50 [4]: 12.3 µM (active)
EC50 [6]: 10.6 µM (active)
EC50 [8]: 14.6 µM (active)
IC50 (H9c2): > 79 µM (inactive)

COc1ccc(OC(=O)N2C/C(=C/c3ccccc3)C(=O)/C(=C\c3ccccc3)C2)cc1
CC50 (Vero): 9.88 µM (active)

CN(C)CCOC1(Cc2ccc(F)cc2)CCC(C(C)(C)C)CC1 (configuration not stated)
CC50 (Vero): > 25 µM (active)

CCOC(=S)SCC(=O)N1CCc2cc(OC)c(OC)cc2C1C1C(=O)CC(C)(C)CC1=O (configuration not stated)
EC50 [3]: > 260 µM (inactive)

COc1ccc(OC)c(Nc2nc(-c3cccc([N+](=O)[O-])c3)nc3ccccc23)c1
EC50 [4]: > 120 µM (not active)
EC50 [6]: 69.3 µM (active)
AC50 (Cytochrome P450 2C9): 0.355 µM (inconclusive)
AC50 (Cytochrome P450 3A4): 2.82 µM (inconclusive)
EC50 [8]: 21.7 µM (active)

COC(=O)c1ccc(Cl)c(NC(=O)CSc2nnc(-c3ccncc3)o2)c1
EC50 (Streptococcus): > 150 µM (not active)
EC50 [14]: > 150 µM (not active)
EC50 (Streptokinase A): > 150 µM (not active)

CCCCOc1ccc(NC(=O)C(=O)NCCC2=CCCCC2)cc1
EC50 [9]: 142 µM (active)
EC50 (BJ [10]): > 150 µM (not active)
EC50 (BJ [11]): > 150 µM (not active)
EC50 (BJ [12]): > 150 µM (inconclusive)

COCC(C)n1c(C)cc(C(=O)CN2C(=O)NC(Cc3c[nH]c4ccccc34)C2=O)c1C (configuration not stated)
EC50 [1]: > 112 µM (not active)
EC50 [2]: > 112 µM (not active)

O=C(Nc1cccc(NC(=O)c2cccnc2Cl)c1)c1ccco1
EC50 [1]: > 112 µM (not active)
EC50 [2]: 16.6 µM (active)

Cc1cc2ccccn2c1C(=O)c1cccc([N+](=O)[O-])c1
EC50 [9]: > 150 µM (inconclusive)
EC50 (BJ [10]): > 150 µM (not active)
EC50 (BJ [11]): > 150 µM (not active)
EC50 (BJ [12]): > 150 µM (inconclusive)

COC(=O)c1cn(NC(=O)C2CCC(C)CC2)c(=O)c2ccccc12 (configuration not stated)
EC50 [3]: > 260 µM (inactive)

N#CC1=C(N)Oc2cc(N)ccc2C1c1cccc(F)c1 (configuration not stated)
EC50 [9]: 16.5 µM (active)
EC50 (BJ [10]): 34 µM (active)
EC50 (BJ [11]): 10.8 µM (active)
EC50 (BJ [12]): 14.2 µM (inconclusive)

CCCc1ccc(-c2cc(N)[nH]n2)cc1
EC50 (Streptococcus): > 150 µM (not active)
EC50 [14]: 30.9 µM (active)
AC50 [18]: 11.3 µM (active)
EC50 (Streptokinase A): > 150 µM (not active)
